In patent US11344554B2, “Animal and human anti-malarial agents” (Celgene Corporation, priority 2016, dated 2022):
pIC50: −log10 of the molar value.

System: Plasmodium falciparum
Assay: Plasmodium falciparum in vitro [3H]-hypoxanthine parasite growth inhibition assay
Assay type: cell-based
Conditions: Erythrocyte, P. falciparum asexual blood stage parasites in human erythrocytes, [3H]-hypoxanthine uptake, read-out: Act Class (IC50 activity level)

Compound | pIC50
CC(C)(C)Nc1ncc2nc(Nc3cccc(C(F)(F)F)c3)n(C3CCN(CCN)CC3)c2n1 [Cpd 4, 9-(1-(2-aminoethyl)piperidin-4-yl)-N2-tert-butyl-N8-(3-(trifluoromethyl)phenyl)-9H-purine-2,8-diamine] | > 7.00
CC(C)(C)Nc1ncc2nc(Nc3ccc(Cl)c(C(F)(F)F)c3)n(C3CCNCC3)c2n1 [Cpd 88, N2-tert-butyl-N8-(4-chloro-3-(trifluoromethyl)phenyl)-9-(piperidin-4-yl)-9H-purine-2,8-diamine] | 6.70 to 7.00
CC1(Nc2ncc3nc(Nc4cc(Cl)cc(C(F)(F)F)c4)n(C4CCNCC4)c3n2)CC1 [Cpd 42, N8-(3-chloro-5-(trifluoromethyl)phenyl)-N2-(1-methylcyclopropyl)-9-(piperidin-4-yl)-9H-purine-2,8-diamine] | > 7.00
CC(C)(C)Nc1ncc2nc(Nc3ccc(C(F)(F)F)cc3)n(C3CCNCC3)c2n1 [Cpd 2, N2-tert-butyl-9-(piperidin-4-yl)-N8-(4-(trifluoromethyl)phenyl)-9H-purine-2,8-diamine] | 6.30 to 6.70
CC1(Nc2ncc3nc(Nc4ccc(C(F)(F)F)c(Cl)c4)n(C4CCNCC4)c3n2)CCCC1 [Cpd 94, N8-(3-chloro-4-(trifluoromethyl)phenyl)-N2-(1-methylcyclopentyl)-9-(piperidin-4-yl)-9H-purine-2,8-diamine] | 6.70 to 7.00
CC(N)CCn1c(Nc2cc(Cl)cc(C(F)(F)F)c2)nc2cnc(NC(C)(C)C)nc21 (stereo not drawn) [Cpd 112, 9-(3-aminobutyl)-N2-tert-butyl-N8-(3-chloro-5-(trifluoromethyl)phenyl)-9H-purine-2,8-diamine] | 6.30 to 6.70
CC(C)Nc1ncc2nc(Nc3cc(Cl)cc(Cl)c3)n(C3CCNCC3)c2n1 [Cpd 43, N8-(3,5-dichlorophenyl)-N2-isopropyl-9-(piperidin-4-yl)-9H-purine-2,8-diamine] | > 7.00
CC(C)(C)Nc1ncc2nc(Nc3cccc(C(F)(F)F)c3)n(C3CCNCC3)c2n1 [Cpd 3, N2-tert-butyl-9-(piperidin-4-yl)-N8-(3-(trifluoromethyl)phenyl)-9H-purine-2,8-diamine] | > 7.00
CN(C)CCCn1c(Nc2cccc(C(F)(F)F)c2)nc2cnc(NC(C)(C)C)nc21 [Cpd 32, N2-tert-butyl-9-(3-(dimethylamino)propyl)-N8-(3-(trifluoromethyl)phenyl)-9H-purine-2,8-diamine] | 5.92 to 6.30
FC(F)(F)c1cc(Nc2nc3cnc(NC4CC4)nc3n2C2CCNCC2)cc(C(F)(F)F)c1 [Cpd 96, N8-(3,5-bis(trifluoromethyl)phenyl)-N2-cyclopropyl-9-(piperidin-4-yl)-9H-purine-2,8-diamine] | 6.70 to 7.00
CC(C)(C)Nc1ncc2nc(Nc3cccc(C(F)(F)F)c3)n(CC3CCNCC3)c2n1 [Cpd 23, N2-tert-butyl-9-(piperidin-4-ylmethyl)-N8-(3-(trifluoromethyl)phenyl)-9H-purine-2,8-diamine] | 5.92 to 6.30
CC(C)(C)Nc1ncc2nc(Nc3cc(F)cc(F)c3)n(C3CCNCC3)c2n1 [Cpd 28, N2-tert-butyl-N8-(3,5-difluorophenyl)-9-(piperidin-4-yl)-9H-purine-2,8-diamine] | 6.70 to 7.00
Fc1cc(Cl)cc(Nc2nc3cnc(NC4CC4)nc3n2C2CCNCC2)c1 [Cpd 62, N8-(3-chloro-5-fluorophenyl)-N2-cyclopropyl-9-(piperidin-4-yl)-9H-purine-2,8-diamine] | 6.70 to 7.00
FC(F)(F)c1cc(Nc2nc3cnc(NC4CCCC4)nc3n2C2CCNCC2)cc(C(F)(F)F)c1 [Cpd 85, N8-(3,5-bis(trifluoromethyl)phenyl)-N2-cyclopentyl-9-(piperidin-4-yl)-9H-purine-2,8-diamine] | > 7.00
CC1(Nc2ncc3nc(Nc4cccc(Cl)c4)n(CCN4CCCC4)c3n2)CCOCC1 [Cpd 17, N8-(3-chlorophenyl)-N2-(4-methyltetrahydro-2H-pyran-4-yl)-9-(2-(pyrrolidin-1-yl)ethyl)-9H-purine-2,8-diamine] | 5.92 to 6.30
CC(C)(C)Nc1ncc2nc(Nc3cccc(C(F)(F)F)c3)n(C3CC4CNCC4C3)c2n1 (stereo not drawn) [Cpd 95, N2-tert-butyl-9-(octahydrocyclopenta[c]pyrrol-5-yl)-N8-(3-(trifluoromethyl)phenyl)-9H-purine-2,8-diamine] | 6.30 to 6.70
CC(C)(C)Nc1ncc2nc(Nc3cc(Cl)cc(C(F)(F)F)c3)n(C3CCNCC3)c2n1 [Cpd 27, N2-tert-butyl-N8-(3-chloro-5-(trifluoromethyl)phenyl)-9-(piperidin-4-yl)-9H-purine-2,8-diamine] | > 7.00
FC(F)(F)c1ccc(Nc2nc3cnc(NC4CCC4)nc3n2C2CCNCC2)cc1Cl [Cpd 83, N8-(3-chloro-4-(trifluoromethyl)phenyl)-N2-cyclobutyl-9-(piperidin-4-yl)-9H-purine-2,8-diamine] | 6.70 to 7.00
CC1(Nc2ncc3nc(Nc4cccc(C(F)(F)F)c4)n(C4CCNCC4)c3n2)CCOCC1 [Cpd 25, N2-(4-methyltetrahydro-2H-pyran-4-yl)-9-(piperidin-4-yl)-N8-(3-(trifluoromethyl)phenyl)-9H-purine-2,8-diamine] | 5.92 to 6.30
CC(C)(C)Nc1ncc2nc(Nc3cccc(C#N)c3)n(C3CCNCC3)c2n1 [Cpd 50, 3-(2-(tert-butylamino)-9-(piperidin-4-yl)-9H-purin-8-ylamino)benzonitrile] | 6.30 to 6.70

Compound | pIC50
CC(C)(C)Nc1ncc2nc(Nc3cccc(Cl)c3F)n(C3CCNCC3)c2n1 [Cpd 47, N2-tert-butyl-N8-(3-chloro-2-fluorophenyl)-9-(piperidin-4-yl)-9H-purine-2,8-diamine] | 5.92 to 6.30
CC(C)(C)Nc1ncc2nc(Nc3ccc(C#N)cc3)n(C3CCNCC3)c2n1 [Cpd 14, 4-(2-(tert-butylamino)-9-(piperidin-4-yl)-9H-purin-8-ylamino)benzonitrile] | 5.92 to 6.30
CC(C)(C)Nc1ncc2nc(Nc3cc(Cl)cc(OC(F)(F)F)c3)n(C3CCNCC3)c2n1 [Cpd 48, N2-tert-butyl-N8-(3-chloro-5-(trifluoromethoxy)phenyl)-9-(piperidin-4-yl)-9H-purine-2,8-diamine] | > 7.00
CC(C)(C)Nc1ncc2nc(Nc3cccc(C(F)(F)F)c3)n(C3CCC4CNCC4C3)c2n1 (stereo not drawn) [Cpd 78, N2-tert-butyl-9-(octahydro-1H-isoindol-5-yl)-N8-(3-(trifluoromethyl)phenyl)-9H-purine-2,8-diamine] | 5.92 to 6.30
CC(C)Nc1ncc2nc(Nc3cc(F)cc(Cl)c3)n(C3CCNCC3)c2n1 [Cpd 63, N8-(3-chloro-5-fluorophenyl)-N2-isopropyl-9-(piperidin-4-yl)-9H-purine-2,8-diamine] | > 7.00
CC1(Nc2ncc3nc(Nc4cccc(OC(F)(F)F)c4)n(C4CCNCC4)c3n2)CCOCC1 [Cpd 55, N2-(4-methyltetrahydro-2H-pyran-4-yl)-9-(piperidin-4-yl)-N8-(3-(trifluoromethoxy)phenyl)-9H-purine-2,8-diamine] | 6.70 to 7.00
CC(C)(C)Nc1ncc2nc(Nc3cc(F)cc(Cl)c3)n(C3CCNCC3)c2n1 [Cpd 26, N2-tert-butyl-N8-(3-chloro-5-fluorophenyl)-9-(piperidin-4-yl)-9H-purine-2,8-diamine] | > 7.00
CC(C)(C)Nc1ncc2nc(Nc3ccnc(C(F)(F)F)c3)n(C3CCNCC3)c2n1 [Cpd 31, N2-tert-butyl-9-(piperidin-4-yl)-N8-(2-(trifluoromethyl)pyridin-4-yl)-9H-purine-2,8-diamine] | 6.30 to 6.70
CC1(Nc2ncc3nc(Nc4cccc(Cl)c4)n(CCN4CCCCC4)c3n2)CCOCC1 [Cpd 16, N8-(3-chlorophenyl)-N2-(4-methyltetrahydro-2H-pyran-4-yl)-9-(2-(piperidin-1-yl)ethyl)-9H-purine-2,8-diamine] | 5.92 to 6.30
CC(C)Nc1ncc2nc(Nc3cc(Cl)cc(C(F)(F)F)c3)n(C3CCNCC3)c2n1 [Cpd 44, N8-(3-chloro-5-(trifluoromethyl)phenyl)-N2-isopropyl-9-(piperidin-4-yl)-9H-purine-2,8-diamine] | > 7.00
CC(C)Nc1ncc2nc(Nc3cc(C(F)(F)F)cc(C(F)(F)F)c3)n(C3CCNCC3)c2n1 [Cpd 84, N8-(3,5-bis(trifluoromethyl)phenyl)-N2-isopropyl-9-(piperidin-4-yl)-9H-purine-2,8-diamine] | > 7.00
CC(C)(C)Nc1ncc2nc(Nc3cc(Cl)cc(C(F)(F)F)c3)n(C3CCN(CCN)CC3)c2n1 [Cpd 39, 9-(1-(2-aminoethyl)piperidin-4-yl)-N2-tert-butyl-N8-(3-chloro-5-(trifluoromethyl)phenyl)-9H-purine-2,8-diamine] | > 7.00
FC(F)(F)c1cccc(Nc2nc3cnc(NC4CCOCC4)nc3n2C2CCNCC2)c1 [Cpd 46, 9-(piperidin-4-yl)-N2-(tetrahydro-2H-pyran-4-yl)-N8-(3-(trifluoromethyl)phenyl)-9H-purine-2,8-diamine] | 5.92 to 6.30
CC(N)CCn1c(Nc2cc(Cl)cc(C(F)(F)F)c2)nc2cnc(NC3CCCC3)nc21 (stereo not drawn) [Cpd 111, 9-(3-aminobutyl)-N8-(3-chloro-5-(trifluoromethyl)phenyl)-N2-cyclopentyl-9H-purine-2,8-diamine] | 6.70 to 7.00
CC(C)(C)Nc1ncc2nc(Nc3cccc(C(F)(F)F)c3)n(CCN3CCNCC3)c2n1 [Cpd 22, N2-tert-butyl-9-(2-(piperazin-1-yl)ethyl)-N8-(3-(trifluoromethyl)phenyl)-9H-purine-2,8-diamine] | 5.92 to 6.30
FC(F)(F)c1ccc(Nc2nc3cnc(NC4CCCC4)nc3n2C2CCNCC2)cc1Cl [Cpd 92, N8-(3-chloro-4-(trifluoromethyl)phenyl)-N2-cyclopentyl-9-(piperidin-4-yl)-9H-purine-2,8-diamine] | 6.30 to 6.70
CC(C)(C)Nc1ncc2nc(Nc3ccc(C(F)(F)F)cc3)n(C3CCN(CCN)CC3)c2n1 [Cpd 5, 9-(1-(2-aminoethyl)piperidin-4-yl)-N2-tert-butyl-N8-(4-(trifluoromethyl)phenyl)-9H-purine-2,8-diamine] | 6.70 to 7.00
FC(F)(F)c1cc(Cl)cc(Nc2nc3cnc(NC4CCCC4)nc3n2C2CCNCC2)c1 [Cpd 53, N8-(3-chloro-5-(trifluoromethyl)phenyl)-N2-cyclopentyl-9-(piperidin-4-yl)-9H-purine-2,8-diamine] | > 7.00
CC(C)Nc1ncc2nc(Nc3ccc(Cl)c(C(F)(F)F)c3)n(C3CCNCC3)c2n1 [Cpd 79, N8-(4-chloro-3-(trifluoromethyl)phenyl)-N2-isopropyl-9-(piperidin-4-yl)-9H-purine-2,8-diamine] | 6.70 to 7.00
